The target of assay [1] is T1, α-glucosidase from Saccharomyces cerevisiae (Saccharomyces cerevisiae, UniProt P53341). Description: α-Glucosidase assay. Conditions: for inhibition percentage lower than standard inhibitor acarbose on α-glucosidase: ratio of inhibition percentages, acarbose vs sample; for inhibition at 20 µM: read-out: Inhibition at 0.02 mM (%) α-Glucosidase. The format is biochemical.

Assay [2] has as its target T2, α-amylase from Aspergillus oryzae (Aspergillus oryzae, UniProt P0C1B3). The assay can be described thus: biochemical. To be noted: for inhibition percentage lower than standard inhibitor acarbose on α-amylase: ratio of inhibition percentages, acarbose vs sample; for inhibition at 20 µM: read-out: Inhibition at 0.02 mM (%) α-Amylase.
Assay [3] addresses T1, α-glucosidase from Saccharomyces cerevisiae. Description: Kinetic study on α-glucosidase. The assay is classed as biochemical. Conditions: for α-Glucosidase inhibition type: Lineweaver-Burk and Dixon plots; for Ki: α-Glucosidase Ki, from slope (Km/Vmax) vs [I], substrate 4-pNPG, free enzyme.
A short description of assay [4]: DPPH assay. To be noted: mean ± SD, n = 3; for Inhibitory activity at 0.5 mM (%): DPPH; for IC50: read-out: IC50 (DPPH free radical scavenging).
Assay [5] has as its target T2, α-amylase from Aspergillus oryzae. Description: Kinetic study on α-amylase. To be noted: for α-Amylase inhibition type: Lineweaver-Burk and Dixon plots; for Ki: substrate amylose. The format is biochemical.
Setting [6] is: IC50 values (mM) α-Amylase, mean ± SD, n = 3.
Where [7] appears, read: α-Amylase Ki, from slope (Km/Vmax) vs [I], free enzyme.
The mark [8] stands for this setting: α-Amylase Ki´, from 1/Vmax vs [I], enzyme-substrate complex.

Where two headings read alike, the source gives them in different places. Marks after values point to notes of the source that are not given here.

The term IC50 denotes the point on the concentration scale where inhibition reaches its midpoint. In general, inhibition refers to the relative decrease from the control value, in per cent. A word on the Ki: it is a dissociation constant, usually derived from enzyme kinetics or from competition with a known ligand. Low readings indicate higher affinity, high ones lower affinity.

T1 sequence (P53341 whole entry): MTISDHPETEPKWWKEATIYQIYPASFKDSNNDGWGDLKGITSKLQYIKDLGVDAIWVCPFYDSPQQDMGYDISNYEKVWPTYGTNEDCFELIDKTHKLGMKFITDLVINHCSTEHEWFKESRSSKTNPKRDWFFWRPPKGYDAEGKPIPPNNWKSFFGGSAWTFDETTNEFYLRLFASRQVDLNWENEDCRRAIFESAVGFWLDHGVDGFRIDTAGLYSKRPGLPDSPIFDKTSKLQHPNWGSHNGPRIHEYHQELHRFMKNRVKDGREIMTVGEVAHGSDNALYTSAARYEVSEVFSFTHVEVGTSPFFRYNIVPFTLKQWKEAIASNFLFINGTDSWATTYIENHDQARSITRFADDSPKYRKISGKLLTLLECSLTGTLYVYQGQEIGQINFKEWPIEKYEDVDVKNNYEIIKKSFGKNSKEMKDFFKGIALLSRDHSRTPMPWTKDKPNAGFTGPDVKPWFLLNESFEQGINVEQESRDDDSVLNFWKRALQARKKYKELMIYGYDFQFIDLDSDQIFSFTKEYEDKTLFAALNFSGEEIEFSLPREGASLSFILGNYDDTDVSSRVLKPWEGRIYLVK

For `CC(=O)C1CCCN1Cc1ccccc1` (stereo not shown) [4a, N-(benzyl)-2-acetylpyrrolidine], in assay [1], the IC50 is 0.52 ± 0.02 mM, the “inhibition percentage lower than standard inhibitor acarbose on α-glucosidase” value is reported as “approximately 2.21 times” and the inhibition at 20 µM stood at 40.3 ± 0.8%. Also, in assay [2], half-maximal inhibition (IC50) was put at 3.21 ± 0.65 mM, the “inhibition percentage lower than standard inhibitor acarbose on α-amylase” value is reported as around 2.13 times and the inhibition at 20 µM was determined as 28.9 ± 0.57%. In assay [2] (IC50 on α-amylase vs IC50 of 4a on α-glucosidase), the “less potential on α-amylase than 4a on α-glucosidase (IC50 ratio)” value was around 6.2 times. Besides, the “less potential on α-amylase than 4b on α-amylase (IC50 ratio)” value in assay [2] (IC50 on α-amylase vs IC50 of 4b on α-amylase) is recorded as “approximately 1.20 times”. Besides, the “less potential on α-amylase than 4b on α-glucosidase (IC50 ratio)” value in assay [2] (IC50 on α-amylase vs IC50 of 4b on α-glucosidase) is “approximately 2.0 times”. Half-maximal inhibition in assay [2] (setting [6]) (IC50) required 2.72 ± 0.09 mM. Besides, in assay [3], the α-Glucosidase inhibition type entry is “Mixed type” and the Ki is 0.29 mM. Moreover, in assay [4], the “Inhibitory activity at 0.5 mM (%)” value was 41.62 ± 0.64^a % and the IC50 was 1.01 ± 0.01 mM. Further, the α-Amylase inhibition type result in assay [5] is recorded as “Mixed type”. Also, affinity in assay [5] (setting [7]) was put at a Ki of 0.23 mM. Besides, the affinity in assay [5] (setting [8]) corresponds to a Ki of 2.35 mM.

For `CC(=O)C1CCCN1S(=O)(=O)c1ccc(C)cc1` (stereo not shown) [4b, N-(tosyl)-2-acetylpyrrolidine], in assay [1], the IC50 worked out at 1.64 ± 0.08 mM, the “inhibition percentage lower than standard inhibitor acarbose on α-glucosidase” value is given as “approximately 2.21 times” and the inhibition at 20 µM is 32.31 ± 0.29%. In assay [2], the IC50 was determined as 2.72 ± 0.09 mM, the “inhibition percentage lower than standard inhibitor acarbose on α-amylase” value is on record as around 2.13 times and the inhibition at 20 µM was found to be 30.1 ± 0.78%. In addition, the IC50 in assay [2] (setting [6]) was 3.21 ± 0.65 mM. In addition, in assay [3], the α-Glucosidase inhibition type result is recorded as “Mixed type” and the Ki came to 0.23 mM. Further, in assay [4], the “Inhibitory activity at 0.5 mM (%)” value was 34.28 ± 0.73^b % and the IC50 was found to be 1.82 ± 0.048 mM. The α-Amylase inhibition type result in assay [5] was “Mixed type”. The same compound gave a Ki in assay [5] (setting [7]) of 0.27 mM. The compound also showed a Ki in assay [5] (setting [8]) of 0.71 mM.

For `C[C@H]1O[C@H](O[C@H]2[C@H](O)[C@@H](O)[C@@H](O[C@H]3[C@H](O)[C@@H](O)C(O)O[C@@H]3CO)O[C@@H]2CO)[C@H](O)[C@@H](O)[C@@H]1N[C@H]1C=C(CO)[C@@H](O)[C@H](O)[C@H]1O` (stereo partly shown) [Acarbose, acarbose, reference compound], in assay [2], the inhibition at 20 µM turned out to be 61.7 ± 1.14%. In addition, the α-Glucosidase inhibition type result in assay [3] is “Mixed type”. Moreover, in assay [5], the α-Amylase inhibition type entry is on record as “Mixed type”.

The record behind these values is PMC7053292 (Research in Pharmaceutical Sciences, 2020).
